# Read-outs that look alike come from different tables or passages of the source.
# Molecular target: T1, Androgen Receptor (Homo sapiens, UniProt P10275)
# T1 construct: endogenous in cells; host or cells: VCaP cells
# T1 sequence (P10275 1-920): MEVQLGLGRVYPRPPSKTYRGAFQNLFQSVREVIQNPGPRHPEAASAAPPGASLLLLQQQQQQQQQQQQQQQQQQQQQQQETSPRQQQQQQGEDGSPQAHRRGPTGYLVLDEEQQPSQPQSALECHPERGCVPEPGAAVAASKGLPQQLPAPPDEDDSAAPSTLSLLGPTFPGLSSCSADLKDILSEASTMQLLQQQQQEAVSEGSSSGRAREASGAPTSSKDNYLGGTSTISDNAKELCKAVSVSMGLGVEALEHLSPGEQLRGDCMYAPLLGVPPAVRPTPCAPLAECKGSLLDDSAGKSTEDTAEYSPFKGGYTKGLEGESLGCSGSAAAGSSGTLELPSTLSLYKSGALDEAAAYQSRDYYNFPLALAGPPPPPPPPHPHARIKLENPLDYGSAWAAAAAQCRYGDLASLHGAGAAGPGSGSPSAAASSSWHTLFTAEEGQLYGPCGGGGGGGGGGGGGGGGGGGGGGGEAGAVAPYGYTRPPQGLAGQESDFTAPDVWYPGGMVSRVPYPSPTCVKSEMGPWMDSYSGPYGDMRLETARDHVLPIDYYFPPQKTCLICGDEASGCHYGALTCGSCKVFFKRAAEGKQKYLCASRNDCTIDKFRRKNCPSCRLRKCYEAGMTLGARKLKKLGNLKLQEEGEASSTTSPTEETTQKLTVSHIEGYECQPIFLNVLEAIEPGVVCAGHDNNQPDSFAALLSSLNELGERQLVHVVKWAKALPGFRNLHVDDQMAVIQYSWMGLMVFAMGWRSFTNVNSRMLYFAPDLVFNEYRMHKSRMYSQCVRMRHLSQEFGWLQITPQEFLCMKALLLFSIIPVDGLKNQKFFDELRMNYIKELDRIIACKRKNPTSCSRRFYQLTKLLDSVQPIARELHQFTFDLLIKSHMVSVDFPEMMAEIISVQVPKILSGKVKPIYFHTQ
# Assay: Androgen Receptor ELISA assay (PathScan AR ELISA) in VCaP cells: AR degradation, Dmax and DC50
# Type: cell-based
# Method in brief: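 After 24 h exposure of VCaP cells (charcoal-stripped serum, 0.1 nM R1881 agonist, 0.1% DMSO) to seven half-log compound concentrations, residual AR in lysates was measured by PathScan ELISA (TMB absorbance, 450 nm). Cells were plated at 30,000/well and grown at least 3 days beforehand.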
# [1] = VCaP cells; Table 36; read-out: VCaP DC50
# [2] = VCaP, read-out: VCaP Dmax (%), VCaP cells; Table 36
# [3] = VCaP, VCaP cells; Table 36; read-out: VCaP Dmax (%)
DC50 [1] [nM],Dmax [2] [%],Dmax [3] [%],SMILES,"Dmax (VCaP, read-out: VCaP Dmax (%)) [%]",DC50 (read-out: VCaP DC50; VCaP cells; Table 36) [nM]
< 50,> 71,–,"Cc1ncsc1-c1ccc([C@H](CO)NC(=O)[C@@H]2C[C@@H](O)CN2C(=O)[C@@H](NC(=O)COCCN2[C@H](C)CN(c3ccc(C(=O)N[C@H]4C(C)(C)[C@H](Oc5ccc(C#N)c(Cl)c5)C4(C)C)cn3)C[C@@H]2C)C(C)(C)C)cc1 [Example 826, N-((1r,3R)-3-(3-chloro-4-cyanophenoxy)-2,2,4,4-tetramethylcyclobutyl)-6-((3S,5R)-4-(2-(2-(((S)-1-((2S,4R)-4-hydroxy-2-(((R)-2-hydroxy-1-(4-(4-methylthiazol-5-yl)phenyl)ethyl)carbamoyl)pyrrolidin-1-yl)-3,3-dimethyl-1-oxobutan-2-yl)amino)-2-oxoethoxy)ethyl)-3,5-dimethylpiperazin-1-yl)nicotinamide]",–,–
< 50,–,> 71,"Cc1ncsc1-c1ccc([C@H](C)NC(=O)C2C[C@@H](O)CN2C(=O)C(NC(=O)CN2CCC(CCN3CCN(c4ccc(C(=O)NC5C(C)(C)C(Oc6ccc(C#N)c(Cl)c6)C5(C)C)cn4)CC3)CC2)C(C)(C)C)cc1 (stereo partly drawn) [Example 827, N-((1r,3r)-3-(3-chloro-4-cyanophenoxy)-2,2,4,4-tetramethylcyclobutyl)-6-(4-(2-(1-(2-(((S)-1-((2S,4R)-4-hydroxy-2-(((S)-1-(4-(4-methylthiazol-5-yl)phenyl)ethyl)carbamoyl)pyrrolidin-1-yl)-3,3-dimethyl-1-oxobutan-2-yl)amino)-2-oxoethyl)piperidin-4-yl)ethyl)piperazin-1-yl)nicotinamide]",–,–
–,–,–,"Cc1ncsc1-c1ccc([C@H](CO)NC(=O)C2C[C@@H](O)CN2C(=O)C(NC(=O)CN2C3CCC2CN(CCCc2ccc(C(=O)NC4C(C)(C)C(Oc5ccc(C#N)c(Cl)c5)C4(C)C)cc2)C3)C(C)(C)C)cc1 (stereo partly drawn) [Example 828, (2S,4R)-1-((2S)-2-(2-(3-(3-(4-(((1r,3r)-3-(3-chloro-4-cyanophenoxy)-2,2,4,4-tetramethylcyclobutyl)carbamoyl)phenyl)propyl)-3,8-diazabicyclo[3.2.1]octan-8-yl)acetamido)-3,3-dimethylbutanoyl)-4-hydroxy-N-((R)-2-hydroxy-1-(4-(4-methylthiazol-5-yl)phenyl)ethyl) pyrrolidine-2-carboxamide]",> 71,< 50
> 501,< 25,–,"Cc1ncsc1-c1ccc([C@H](C)NC(=O)[C@@H]2C[C@@H](O)CN2C(=O)[C@H](c2cc(CCCCN3CCN(c4ccc(C(=O)N[C@H]5C(C)(C)[C@H](Oc6ccc(C#N)c(Cl)c6)C5(C)C)cn4)CC3)no2)C(C)C)cc1 [Example 830, N-((1r,3r)-3-(3-chloro-4-cyanophenoxy)-2,2,4,4-tetramethylcyclobutyl)-6-(4-(4-(5-((S)-1-((2S, 4R)-4-hydroxy-2-(((S)-1-(4-(4-methylthiazol-5-yl)phenyl)ethyl)carbamoyl)pyrrolidin-1-yl)-3-methyl-1-oxobutan-2-yl)isoxazol-3-yl)butyl)piperazin-1-yl)nicotinamide]",–,–
< 50,> 71,–,"Cc1ncsc1-c1ccc([C@H](C)NC(=O)[C@@H]2C[C@@H](O)CN2C(=O)[C@@H](c2cc(CCCCN3CCN(c4ccc(C(=O)N[C@H]5C(C)(C)[C@H](Oc6ccc(C#N)c(Cl)c6)C5(C)C)cn4)CC3)no2)C(C)C)cc1 [Example 831, N-((1r,3r)-3-(3-chloro-4-cyanophenoxy)-2,2,4,4-tetramethylcyclobutyl)-6-(4-(4-(5-((R)-1-((2S, 4R)-4-hydroxy-2-(((S)-1-(4-(4-methylthiazol-5-yl)phenyl)ethyl)carbamoyl)pyrrolidin-1-yl)-3-methyl-1-oxobutan-2-yl)isoxazol-3-yl)butyl)piperazin-1-yl)nicotinamide]",–,–
< 50,–,> 71,"Cc1ncsc1-c1ccc([C@H](C)NC(=O)[C@@H]2C[C@@H](O)CN2C(=O)[C@@H](NC(=O)CN2CCN(CCC3CCN(c4ccc(C(=O)N[C@H]5C(C)(C)[C@H](Oc6ccc(C#N)c(Cl)c6)C5(C)C)cn4)CC3)CC2)C(C)(C)C)cc1 [Example 833, N-((1r,3r)-3-(3-chloro-4-cyanophenoxy)-2,2,4,4-tetramethylcyclobutyl)-6-(4-(2-(4-(2-(((S)-1-((2S,4R)-4-hydroxy-2-(((S)-1-(4-(4-methylthiazol-5-yl)phenyl)ethyl)carbamoyl)pyrrolidin-1-yl)-3,3-dimethyl-1-oxobutan-2-yl)amino)-2-oxoethyl)piperazin-1-yl)ethyl)piperidin-1-yl)nicotinamide]",–,–
< 50,–,> 71,"Cc1ncsc1-c1ccc(C(CO)NC(=O)[C@@H]2CC(O)CN2C(=O)[C@@H](NC(=O)CN2CCN(CCN3CCN(c4ccc(C(=O)NC5C(C)(C)C(Oc6ccc(C#N)c(Cl)c6)C5(C)C)cn4)CC3)CC2)C(C)(C)C)cc1 (stereo partly drawn) [Example 834, N-((1r,3r)-3-(3-chloro-4-cyanophenoxy)-2,2,4,4-tetramethylcyclobutyl)-6-(4-(2-(4-(2-(((S)-1-((2S,4R)-4-hydroxy-2-(((R)-2-hydroxy-1-(4-(4-methylthiazol-5-yl)phenyl)ethyl)carbamoyl)pyrrolidin-1-yl)-3,3-dimethyl-1-oxobutan-2-yl)amino)-2-oxoethyl)piperazin-1-yl)ethyl)piperazin-1-yl)nicotinamide]",–,–

SMILES,DC50 [1] [nM],Dmax [2] [%],Dmax [3] [%],"Dmax (VCaP, read-out: VCaP Dmax (%)) [%]",DC50 (read-out: VCaP DC50; VCaP cells; Table 36) [nM]
"Cc1ncsc1-c1ccc([C@H](C)NC(=O)[C@@H]2C[C@@H](O)CN2C(=O)[C@@H](NC(=O)CN2CCN(CCCc3ccc(C(=O)N[C@H]4C(C)(C)[C@H](Oc5ccc(C#N)c(Cl)c5)C4(C)C)cc3)[C@H](CO)C2)C(C)(C)C)cc1 [Example 824, (2S,4R)-1-((S)-2-(2-((S)-4-(3-(4-(((1r,3S)-3-(3-chloro-4-cyanophenoxy)-2,2,4,4-tetramethylcyclobutyl)carbamoyl)phenyl)propyl)-3-(hydroxymethyl)piperazin-1-yl)acetamido)-3,3-dimethylbutanoyl)-4-hydroxy-N-((S)-1-(4-(4-methylthiazol-5-yl)phenyl)ethyl) pyrrolidine-2-carboxamide]",< 50,–,–,> 71,–
"Cc1ncsc1-c1ccc([C@H](C)NC(=O)[C@@H]2C[C@@H](O)CN2C(=O)[C@@H](NC(=O)CN2CCC(CN3CCN(c4ccc(C(=O)N[C@H]5C(C)(C)[C@H](Oc6ccc(C#N)c(Cl)c6)C5(C)C)cn4)CC3)CC2)C(C)(C)C)cc1 [Example 825, N-((1r,3r)-3-(3-chloro-4-cyanophenoxy)-2,2,4,4-tetramethylcyclobutyl)-6-(4-((1-(2-(((S)-1-((2S,4R)-4-hydroxy-2-(((S)-1-(4-(4-methylthiazol-5-yl)phenyl)ethyl)carbamoyl)pyrrolidin-1-yl)-3,3-dimethyl-1-oxobutan-2-yl)amino)-2-oxoethyl)piperidin-4-yl)methyl)piperazin-1-yl)nicotinamide]",< 50,–,–,> 71,–
"Cc1ncsc1-c1ccc([C@H](C)NC(=O)[C@@H]2C[C@@H](O)CN2C(=O)[C@@H](NC(=O)CN2CCN(CCC3CCN(c4ccc(C(=O)N[C@H]5C(C)(C)[C@H](Oc6ccc(C#N)c(Cl)c6)C5(C)C)cn4)C3)CC2)C(C)(C)C)cc1 (stereo partly drawn) [Example 829, N-((1r,3r)-3-(3-chloro-4-cyanophenoxy)-2,2,4,4-tetramethylcyclobutyl)-6-(3-(2-(4-(2-(((S)-1-((2S,4R)-4-hydroxy-2-(((S)-1-(4-(4-methylthiazol-5-yl)phenyl)ethyl)carbamoyl)pyrrolidin-1-yl)-3,3-dimethyl-1-oxobutan-2-yl)amino)-2-oxoethyl)piperazin-1-yl)ethyl)pyrrolidin-1-yl)nicotinamide]",< 50,–,–,> 71,–
"Cc1ncsc1-c1ccc([C@H](C)NC(=O)[C@@H]2C[C@@H](O)CN2C(=O)[C@@H](NC(=O)CN[C@H]2C[C@H](OC3CCN(c4ccc(C(=O)N[C@H]5C(C)(C)[C@H](Oc6ccc(C#N)c(Cl)c6)C5(C)C)cn4)CC3)C2)C(C)(C)C)cc1 [Example 832, N-((1r,3r)-3-(3-chloro-4-cyanophenoxy)-2,2,4,4-tetramethylcyclobutyl)-6-(4-((1S,3r)-3-((2-(((S)-1-((2S,4R)-4-hydroxy-2-(((S)-1-(4-(4-methylthiazol-5-yl)phenyl)ethyl)carbamoyl)pyrrolidin-1-yl)-3,3-dimethyl-1-oxobutan-2-yl)amino)-2-oxoethyl)amino)cyclobutoxy)piperidin-1-yl)nicotinamide]",< 50,–,–,> 71,–

# From US11427548B2 (Arvinas Operations, Inc., priority 2015, dated 2022)
